ChEMBL document CHEMBL1151554, “Non thiazolidinedione antihyperglycaemic agents. 1: -Heteroatom substituted -phenylpropanoic acids” (Bioorg Med Chem Lett, 1996)

These compounds were tested on Mus musculus (assay: In vivo inhibition of glucose load induced hyperglycaemia in fasted C57B1/6 ob/ob mice.).
Type: functional

First: COC(=O)C(Cc1ccc(OCCN(C)c2nc3ccccc3o2)cc1)N(C)C (stereo unspecified)
Second: COC(=O)C(Cl)Cc1ccc(OCCN(C)c2nc3ccccc3o2)cc1 (stereo unspecified)
The ED25 of the first is higher: 1000 µM/kg for the first, 10 µM/kg for the second.

First: CN(CCOc1ccc(CC2SC(=O)NC2=O)cc1)c1nc2ccccc2o1 (stereo unspecified) [BRL-48482]
Second: CN(CCOc1ccc(CC(S)C(=O)O)cc1)c1nc2ccccc2o1 (stereo unspecified)
The ED25 of the first is lower: 3 µM/kg for the first, 300 µM/kg for the second.

`COC(=O)C(Cc1ccc(OCCN(C)c2nc3ccccc3o2)cc1)OC` (stereo unspecified) and `COC(Cc1ccc(OCCN(C)c2nc3ccccc3o2)cc1)C(=O)O` (stereo unspecified) are the same in ED25: 3 µM/kg for the first, 3 µM/kg for the second.

`CN(CCOc1ccc(CC(Sc2ccccc2)C(=O)O)cc1)c1nc2ccccc2o1` (stereo unspecified) and `COC(=O)C(Cc1ccc(OCCN(C)c2nc3ccccc3o2)cc1)Sc1ccccc1` (stereo unspecified) are the same in ED25: 30 µM/kg for the first, 30 µM/kg for the second.

`CN(CCOc1ccc(CC(Cl)C(=O)O)cc1)c1nc2ccccc2o1` (stereo unspecified) and `CN(CCOc1ccc(CC(F)C(=O)O)cc1)c1nc2ccccc2o1` (stereo unspecified) are the same in ED25: 10 µM/kg for the first, 10 µM/kg for the second.

Going from `CN(CCOc1ccc(CC(C(=O)O)S(=O)(=O)c2ccccc2)cc1)c1nc2ccccc2o1` (stereo unspecified) to `CN(CCOc1ccc(CC(Nc2ccccc2)C(=O)O)cc1)c1nc2ccccc2o1` (stereo unspecified), the ED25 falls from 1000 µM/kg to 30 µM/kg.

Going from `CN(CCOc1ccc(CC(OCc2ccccc2)C(=O)[O-])cc1)c1nc2ccccc2o1.[Na+]` (stereo unspecified) to `CN(CCOc1ccc(CC(OCCc2ccccc2)C(=O)O)cc1)c1nc2ccccc2o1` (stereo unspecified), the ED25 rises from 0.3 µM/kg to 1 µM/kg.

First: Cc1c(C)c2c(c(C)c1O)CCC(C)(COc1ccc(CC3SC(=O)NC3=O)cc1)O2 (stereo unspecified) [TROGLITAZONE]
Second: CNC(Cc1ccc(OCCN(C)c2nc3ccccc3o2)cc1)C(=O)OC (stereo unspecified)
The ED25 of the first is lower: 400 µM/kg for the first, 1000 µM/kg for the second.

`COC(=O)C(Br)Cc1ccc(OCCN(C)c2nc3ccccc3o2)cc1` (stereo unspecified) and `COC(=O)C(Cc1ccc(OCCN(C)c2nc3ccccc3o2)cc1)SC` (stereo unspecified) are the same in ED25: 100 µM/kg for the first, 100 µM/kg for the second.

Compared with `CCOC(Cc1ccc(OCCN(C)c2nc3ccccc3o2)cc1)C(=O)O` (stereo unspecified), `CCCOC(Cc1ccc(OCCN(C)c2nc3ccccc3o2)cc1)C(=O)[O-].[Na+]` (stereo unspecified) is higher in ED25: 0.1 µM/kg for the first, 0.3 µM/kg for the second.

`CN(CCOc1ccc(CC(Oc2ccccc2)C(=O)O)cc1)c1nc2ccccc2o1` (stereo unspecified) showed an ED25 of 1 µM/kg.

With `COC(=O)C(Cc1ccc(OCCN(C)c2nc3ccccc3o2)cc1)OC(C)C` (stereo unspecified) the ED25 was less than 0.3 µM/kg.
`COC(=O)CCc1ccc(OCCN(C)c2nc3ccccc3o2)cc1` gave an ED25 greater than 2000 µM/kg.

Each compound was assayed against T1, Peroxisome proliferator-activated receptor gamma (Homo sapiens) (UniProt P37231).
T1 sequence (whole entry): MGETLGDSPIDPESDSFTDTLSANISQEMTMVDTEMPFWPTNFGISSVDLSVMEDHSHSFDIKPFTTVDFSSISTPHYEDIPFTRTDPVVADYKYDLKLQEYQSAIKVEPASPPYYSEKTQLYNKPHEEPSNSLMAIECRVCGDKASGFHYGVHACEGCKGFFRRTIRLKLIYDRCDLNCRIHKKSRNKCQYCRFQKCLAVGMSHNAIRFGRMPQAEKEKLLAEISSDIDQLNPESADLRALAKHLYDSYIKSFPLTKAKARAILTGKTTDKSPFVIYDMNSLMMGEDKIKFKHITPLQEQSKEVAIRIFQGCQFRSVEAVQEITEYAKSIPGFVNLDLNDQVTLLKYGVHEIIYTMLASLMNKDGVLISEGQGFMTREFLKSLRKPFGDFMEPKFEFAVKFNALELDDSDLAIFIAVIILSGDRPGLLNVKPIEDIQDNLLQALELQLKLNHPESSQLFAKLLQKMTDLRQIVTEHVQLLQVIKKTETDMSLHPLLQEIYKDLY

With `COC(=O)C(Cc1ccc(OCCN(C)c2nc3ccccc3o2)cc1)N(C)C` (stereo unspecified) the Displacement was 26%.

What follows are compounds tested against T2, Peroxisome proliferator-activated receptor gamma (Homo sapiens, UniProt P37231).
T2 sequence (P37231 whole entry): T1 sequence (whole entry)
Description: inhibition of [125I]SB 236636 binding to human PPAR gamma receptor

First: CN(CCOc1ccc(CC(Sc2ccccc2)C(=O)O)cc1)c1nc2ccccc2o1 (stereo unspecified)
Second: CN(CCOc1ccc(CC(Oc2ccccc2)C(=O)O)cc1)c1nc2ccccc2o1 (stereo unspecified)
The Ki of the first is 92-fold higher: 37 nM for the first, 0.4 nM for the second. The second binds more tightly here.
